# Results reported in BindingDB's records for patent US20250313563 (The Broad Institute, 2025).
# Several values for one entry are separate records, joined by “and”; a condition that tells them apart may be missing. Equal values may be shown once.
# How the values were obtained:
# [1] = target: Glycogen synthase kinase-3 beta (Homo sapiens, UniProt P49841); experiment: TR-FRET Assay
# Protocol: (§1) The assay was performed in a white, 384 well, low volume, flat bottom plate (Grenier). […] The kinase activity was quenched with 2 μL of 250 mM EDTA. A 10 μL volume of 40 nM Strepavidin-d2, 2 nM Tb2+-pSer641 antibody in TR-FRET Detection Buffer (Invitrogen) was then added.
# [2] = target: Glycogen synthase kinase-3 alpha (Homo sapiens, UniProt P49840); experiment: TR-FRET Assay
# Protocol: as §1
# Glycogen synthase kinase-3 beta, sequence (P49841 whole entry): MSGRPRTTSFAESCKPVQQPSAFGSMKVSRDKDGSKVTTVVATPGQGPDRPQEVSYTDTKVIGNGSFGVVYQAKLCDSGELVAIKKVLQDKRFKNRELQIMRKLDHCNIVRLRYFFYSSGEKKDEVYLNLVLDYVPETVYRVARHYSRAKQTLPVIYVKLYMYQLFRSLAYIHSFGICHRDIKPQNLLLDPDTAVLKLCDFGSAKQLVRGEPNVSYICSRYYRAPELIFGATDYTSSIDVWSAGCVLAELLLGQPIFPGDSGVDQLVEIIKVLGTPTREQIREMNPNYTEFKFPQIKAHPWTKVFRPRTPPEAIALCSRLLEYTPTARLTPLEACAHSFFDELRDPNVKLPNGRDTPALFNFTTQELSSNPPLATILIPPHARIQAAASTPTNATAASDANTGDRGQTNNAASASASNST
# Glycogen synthase kinase-3 alpha, sequence (P49840 whole entry): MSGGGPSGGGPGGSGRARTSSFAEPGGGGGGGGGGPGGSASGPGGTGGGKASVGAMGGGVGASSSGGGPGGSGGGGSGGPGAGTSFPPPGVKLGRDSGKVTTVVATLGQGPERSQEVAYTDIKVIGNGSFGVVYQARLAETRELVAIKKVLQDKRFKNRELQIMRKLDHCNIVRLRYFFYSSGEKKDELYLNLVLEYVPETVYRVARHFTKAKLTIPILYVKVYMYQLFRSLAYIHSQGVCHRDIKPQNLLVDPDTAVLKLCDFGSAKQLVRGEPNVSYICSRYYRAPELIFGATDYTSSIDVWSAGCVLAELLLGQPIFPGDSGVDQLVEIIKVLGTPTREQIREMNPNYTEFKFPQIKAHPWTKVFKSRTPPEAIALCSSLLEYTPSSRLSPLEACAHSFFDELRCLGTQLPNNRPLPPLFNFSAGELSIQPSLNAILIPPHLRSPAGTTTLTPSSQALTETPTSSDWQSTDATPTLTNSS
SMILES,IC50 [1],IC50 [2]
"CC1(c2ccccc2)C2=C(N=NC2)NC2=C1C(=O)CC1(CCCC1)C2 (stereo not given) [US20250313563, Compound 789460]",100 to 1000 nM,100 to 1000 nM
"CC1(C)CC(=O)C2=C(C1)NC1=C(CN=N1)C2(c1ccccc1)c1ccccc1 [US20250313563, Compound 789461]",> 5000 nM,1000 to 5000 nM
"CCC1(c2ccccc2)C2=C(N=NC2)NC2=C1C(=O)CCC2 (stereo not given) [US20250313563, Compound 789497]",> 5000 nM,1000 to 5000 nM
"CC(C)(C)CC1=C2C(N=N1)NC1=C(C(=O)CC(C)(C)C1)[C@]21CCc2ccc(F)cc21 (stereo not given in full) [US20250313563, Compound 789504]",100 to 1000 nM,1000 to 5000 nM
"CC(C)(C)CC1=C2C(N=N1)NC1=C(C(=O)CC(C)(C)C1)[C@@]21CCc2ccc(F)cc21 (stereo not given in full) [US20250313563, Compound 789505]",< 100 nM,100 to 1000 nM
"CC1(C)CC(=O)C2=C(C1)NC1=C(CN=N1)C2(C)c1cccc(-c2ccccc2)c1 (stereo not given) [US20250313563, Compound 789513]",100 to 1000 nM,100 to 1000 nM
"CCC1(c2cccc(-c3ccccc3)c2)C2=CN=NC2NC2=C1C(=O)CC(C)(C)C2 (stereo not given) [US20250313563, Compound 789514]",100 to 1000 nM,100 to 1000 nM
"CC(C)(C)CC1=C2C(N=N1)NC1=C(C(=O)CC(C)(C)C1)C21CCc2c(F)cccc21 (stereo not given) [US20250313563, Compound 789524]",< 100 nM,100 to 1000 nM
"CC[C@]1(c2cccc(C)c2)C2=CN=NC2NC2=C1C(=O)CC(C)(C)C2 (stereo not given in full) [US20250313563, Compound 789560]",100 to 1000 nM,< 100 nM and 1000 to 5000 nM
"CC[C@@]1(c2cccc(C)c2)C2=CN=NC2NC2=C1C(=O)CC(C)(C)C2 (stereo not given in full) [US20250313563, Compound 789561]",> 5000 nM,1000 to 5000 nM
"CC[C@]1(c2ccccc2)C2=CN=NC2NC2=C1C(=O)CC1(CCCC1)C2 (stereo not given in full) [US20250313563, Compound 789562]",100 to 1000 nM,< 100 nM
"CCC1(c2cccc(Cl)c2)C2=C(CC(C)(C)CC2=O)NC2N=NC(Br)=C21 (stereo not given) [US20250313563, Compound 789564]",< 100 nM,< 100 nM
"CCC1(c2cccc(C)c2)C2=C(N=NC2)NC2=C1C(=O)CC1(CCCC1)C2 (stereo not given) [US20250313563, Compound 789565]",100 to 1000 nM,< 100 nM
"CCC1(c2cccc(Cl)c2)C2=C(CC(C)(C)CC2=O)NC2N=NC(C(F)(F)F)=C21 (stereo not given) [US20250313563, Compound 789566]",< 100 nM,< 100 nM
"CC(C)(C)CC1=C2C(N=N1)NC1=C(C(=O)CC(C)(C)C1)C21CCc2cccc(F)c21 (stereo not given) [US20250313563, Compound 789583]",100 to 1000 nM,100 to 1000 nM
"CCC1(c2cccc(C(F)(F)F)c2)C2=C(CC(C)(C)CC2=O)NC2N=NC(C(F)(F)F)=C21 (stereo not given) [US20250313563, Compound 789584]",1000 to 5000 nM,100 to 1000 nM
"CC[C@]1(c2cccc(Cl)c2)C2=C(CC(C)(C)CC2=O)NC2N=NC(C)=C21 (stereo not given in full) [US20250313563, Compound 790612]",< 100 nM,< 100 nM
"CC[C@]1(c2ccccc2)C2=CN=NC2NC2=C1C(=O)CC1(CC1)C2 (stereo not given in full) [US20250313563, Compound 790615]",100 to 1000 nM,< 100 nM
"CCC1(c2cccc(C(F)(F)F)c2)C2=CN=NC2NC2=C1C(=O)CC1(CCCC1)C2 (stereo not given) [US20250313563, Compound 790617]",< 100 nM,< 100 nM
"CCC1(c2ccn(C)n2)C2=C(N=NC2)NC2=C1C(=O)CC(C)(C)C2 (stereo not given) [US20250313563, Compound 790619]",> 5000 nM,1000 to 5000 nM
"CC1(C)CC(=O)C2=C(C1)NC1N=NC(C(F)(F)F)=C1C21CCCOc2ccccc21 (stereo not given) [US20250313563, Compound 790632]",> 5000 nM,> 5000 nM
"CC1(C)CC(=O)C2=C(C1)NC1=C(CN=N1)C21CCCC1 [US20250313563, Compound 790666]",< 100 nM,< 100 nM
"CC1(C)CC(=O)C2=C(C1)NC1=C(CN=N1)C2(C)c1cccc(-c2ccncc2)c1 (stereo not given) [US20250313563, Compound 790730]",100 to 1000 nM,< 100 nM
"CC[C@]1(c2cccc(Br)c2)C2=CN=NC2NC2=C1C(=O)CC(C)(C)C2 (stereo not given in full) [US20250313563, Compound 790733]",1000 to 5000 nM,100 to 1000 nM
"CC1(C)CC(=O)C2=C(C1)NC1N=NC(C(F)(F)F)=C1C21CCCc2ccccc21 (stereo not given) [US20250313563, Compound 790745]",< 100 nM,< 100 nM
"CC[C@]1(c2cccc(C(F)(F)F)c2)C2=CN=NC2NC2=C1C(=O)CC(C)(C)C2 (stereo not given in full) [US20250313563, Compound 790754]",1000 to 5000 nM,100 to 1000 nM
"CC[C@@]1(c2cccc(C(F)(F)F)c2)C2=CN=NC2NC2=C1C(=O)CC(C)(C)C2 (stereo not given in full) [US20250313563, Compound 790755]",> 1700 nM,100 to 1000 nM
"CC(C)(C)CC1=C2C(N=N1)NC1=C(C(=O)CC(C)(C)C1)[C@@]21CCc2c(F)cccc21 (stereo not given in full) [US20250313563, Compound 791257]",< 100 nM,< 100 nM

SMILES,IC50 [1],IC50 [2]
"CC[C@@]1(c2ccccc2)C2=CN=NC2NC2=C1C(=O)C[C@H](c1ccccc1)C2 (stereo not given in full) [US20250313563, Compound 791264]",> 5000 nM,100 to 1000 nM
"CC[C@]1(c2ccccc2)C2=CN=NC2NC2=C1C(=O)C[C@H](c1ccccc1)C2 (stereo not given in full) [US20250313563, Compound 791265]",> 5000 nM,1000 to 5000 nM
"CC[C@@]1(c2ccccc2)C2=C(N=NC2)NC2=C1C(=O)[C@H]1CC[C@@H]2C1 [US20250313563, Compound 791266]",> 5000 nM,> 5000 nM
"CC[C@]1(c2ccccc2)C2=C(N=NC2)NC2=C1C(=O)[C@H]1CC[C@@H]2C1 [US20250313563, Compound 791268]",> 5000 nM,> 5000 nM
"CC[C@@]1(c2ccccc2)C2=C(N=NC2)NC2=C1C(=O)[C@@H]1CC[C@H]2C1 [US20250313563, Compound 791269]",100 to 1000 nM,100 to 1000 nM
"CC[C@]1(c2ccccc2)C2=C(N=NC2)NC2=C1C(=O)[C@@H]1CC[C@H]2C1 [US20250313563, Compound 791270]",> 1700 nM,100 to 1000 nM
"CCC1(c2cccc(-c3ccncc3)c2)C2=CN=NC2NC2=C1C(=O)CC(C)(C)C2 (stereo not given) [US20250313563, Compound 791271]",100 to 1000 nM,< 100 nM
"CCC1(c2cccc(-c3cccnc3)c2)C2=CN=NC2NC2=C1C(=O)CC(C)(C)C2 (stereo not given) [US20250313563, Compound 791272]",100 to 1000 nM,< 100 nM
"CCC1(c2cccc(C3CCOCC3)c2)C2=CN=NC2NC2=C1C(=O)CC(C)(C)C2 (stereo not given) [US20250313563, Compound 791273]",100 to 1000 nM,< 100 nM
"C[C@]1(c2ccccc2)C2=C(N=NC2)NC2=C1C(=O)CC1(CCCC1)C2 [US20250313563, Compound 792338]",100 to 1000 nM,< 100 nM
"C[C@@]1(c2ccccc2)C2=C(N=NC2)NC2=C1C(=O)CC1(CCCC1)C2 [US20250313563, Compound 792339]",> 5000 nM,> 1700 nM
"CC[C@@]1(c2ccccc2)C2=C(CC(C)(C)CC2=O)NC2N=NC(Br)=C21 (stereo not given in full) [US20250313563, Compound 792340]",< 100 nM and 100 to 1000 nM,< 100 nM and 100 to 1000 nM
"CC[C@]1(c2ccccc2)C2=C(CC(C)(C)CC2=O)NC2N=NC(Br)=C21 (stereo not given in full) [US20250313563, Compound 792341]",100 to 1000 nM,100 to 1000 nM
"COc1cccc(C2(C)C3=C(N=NC3)NC3=C2C(=O)CC(C)(C)C3)c1 (stereo not given) [US20250313563, Compound 792342]",100 to 1000 nM,100 to 1000 nM
"CCC1(c2ccccc2)C2=C(CC(C)(C)CC2=O)NC2N=NC(C(F)(F)F)=C21 (stereo not given) [US20250313563, Compound 792343]",< 100 nM,< 100 nM
"CC[C@]1(c2cccc(Cl)c2)C2=C(CC(C)(C)CC2=O)NC2N=NC(C(F)(F)F)=C21 (stereo not given in full) [US20250313563, Compound 801308]",< 100 nM and 100 to 1000 nM,< 100 nM
"CC[C@@]1(c2cccc(C(F)(F)F)c2)C2=CN=NC2NC2=C1C(=O)CC1(CCCC1)C2 (stereo not given in full) [US20250313563, Compound 801310]",> 1670 nM,100 to 1000 nM
"CC[C@]1(c2cccc(C(F)(F)F)c2)C2=CN=NC2NC2=C1C(=O)CC1(CCCC1)C2 (stereo not given in full) [US20250313563, Compound 801311]",< 100 nM and 100 to 1000 nM,< 100 nM
"CC[C@@]1(c2cccc(C)c2)C2=CN=NC2NC2=C1C(=O)CC1(CCCC1)C2 (stereo not given in full) [US20250313563, Compound 801312]",100 to 1000 nM,< 100 nM
"CC[C@]1(c2cccc(C)c2)C2=CN=NC2NC2=C1C(=O)CC1(CCCC1)C2 (stereo not given in full) [US20250313563, Compound 801313]",> 5000 nM,> 1670 nM
"CC[C@@]1(c2cccc(Cl)c2)C2=C(CC(C)(C)CC2=O)NC2N=NC(Br)=C21 (stereo not given in full) [US20250313563, Compound 801315]",100 to 1000 nM,100 to 1000 nM
"CCC1(c2cccc(C3CC3)c2)C2=CN=NC2NC2=C1C(=O)CC(C)(C)C2 (stereo not given) [US20250313563, Compound 801316]",< 100 nM,< 100 nM
"CCC1(c2cccc(N3CCCC3)c2)C2=CN=NC2NC2=C1C(=O)CC(C)(C)C2 (stereo not given) [US20250313563, Compound 801317]",100 to 1000 nM,100 to 1000 nM
"CCC1(c2cccc(N3CCOCC3)c2)C2=CN=NC2NC2=C1C(=O)CC(C)(C)C2 (stereo not given) [US20250313563, Compound 801318]",> 1670 nM,100 to 1000 nM
"CCC1(c2cccc(N(C)C(C)=O)c2)C2=CN=NC2NC2=C1C(=O)CC(C)(C)C2 (stereo not given) [US20250313563, Compound 801319]",< 100 nM,< 100 nM
"CCC1(c2cccc(N3CCCCC3)c2)C2=CN=NC2NC2=C1C(=O)CC(C)(C)C2 (stereo not given) [US20250313563, Compound 801320]",100 to 1000 nM,100 to 1000 nM
"CCC1(c2cccc(C(F)(F)F)c2)C2=C(CC(C)(C)CC2=O)NC2N=NC(C)=C21 (stereo not given) [US20250313563, Compound 801321]",< 100 nM,< 100 nM
